# Earlier results, collected in patent publication US8709515B1, “Nutritional supplement method” (priority 2009, dated 2014).
# What was measured:
# [1] = tested on: cats
# [2] = tested on: albino rats; settings: fed in the water to albino rats
# [3] = tested on: rats; settings: one eye with induced increase in intraocular pressure
# [4] = tested on: selenite induced cataracts in rats
SMILES,dose above which it may not be safe [1],light-induced photoreceptor damage [2],retinal neuronal death [3],progression of cataract [4]
O=C(O)CCCCC1CCSS1 (stereo not drawn) [Alpha lipoic acid],higher than 30 mg/day,–,–,–
"O=C(O[C@@H]1Cc2c(O)cc(O)cc2O[C@@H]1c1cc(O)c(O)c(O)c1)c1cc(O)c(O)c(O)c1 [EGCG, Epigallocatechin gallate]",–,attenuated light-induced photoreceptor damage,attenuated retinal neuronal death,retards the progression of cataract
